Molecules are shown by their SMILES.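 Results reflect a 48-hour exposure of cells in 96-well plates to compound at five concentrations. At the GI50, growth is halved. TGI denotes the concentration required for complete inhibition of growth.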

Some test systems named below: CCRF-CEM leukemia; COLO 205 colon; EKVX NSCLC; HT29 colon; KM12 colon; M14 melanoma; NCI-H460 lung; SN12C renal; T-47D breast.
Common to all, as to assay: NCI-60 cell line screen, 48 h

Consider `CC1(C)C(=O)OC(n2cc(F)c(=O)[nH]c2=O)C1=O` (stereo not drawn), for which the TGI in the experiment with CCRF-CEM leukemia, in the experiment on COLO 205 colon, in the experiment on EKVX NSCLC, with HT29 colon, with KM12 colon and with M14 melanoma was more than 100 µM each time. Besides, the TGI with NCI-H460 lung and in the experiment on SN12C renal was more than 100 µM in each case.
Regarding `Cc1ccccc1NC(=O)Cc1nc2ccccc2s1`, the TGI is 33 µM in the experiment on CCRF-CEM leukemia; more than 100 µM in the experiment on COLO 205 colon; 35.1 µM with EKVX NSCLC; 38.4 µM in the experiment on HT29 colon; 31.3 µM in the experiment with KM12 colon; 25.2 µM in the experiment on M14 melanoma. Moreover, the TGI was 38.2 µM with NCI-H460 lung and 30.2 µM in the experiment with SN12C renal.
Consider `CC(=O)[CH-]C(=O)c1ccccc1.CC(=O)[CH-]C(=O)c1ccccc1.Cl.[O-]c1ccnc2ccccc12.[O-]c1ccnc2ccccc12.[Ti+4]`, for which the GI50 in the experiment on CCRF-CEM leukemia, in the experiment on COLO 205 colon, in the experiment on EKVX NSCLC, in the experiment with HT29 colon, with KM12 colon and in the experiment with M14 melanoma was more than 100 µM in each case. Further, the GI50 with NCI-H460 lung and with SN12C renal was more than 100 µM each time. Besides, the TGI in the experiment with CCRF-CEM leukemia, with COLO 205 colon, in the experiment with EKVX NSCLC, in the experiment on HT29 colon, in the experiment with KM12 colon and in the experiment on M14 melanoma was more than 100 µM in each case. Also, the TGI in the experiment with NCI-H460 lung and in the experiment with SN12C renal was more than 100 µM throughout.
Turning to `Cc1ccc(S(=O)(=O)OCOS(=O)(=O)c2ccc(C)cc2)cc1`, the TGI in the experiment with CCRF-CEM leukemia, in the experiment with COLO 205 colon, with EKVX NSCLC, with KM12 colon, in the experiment with M14 melanoma and with NCI-H460 lung was more than 100 µM throughout. The compound also registered a TGI with SN12C renal of more than 100 µM.
Take `CCOC(=O)C1=C(OC(OCC)C([Se]c2ccccc2)C(C)C)CCC1` (stereo not drawn): the TGI was 27.8 µM in the experiment on CCRF-CEM leukemia; 31.7 µM in the experiment with COLO 205 colon; 46.7 µM with EKVX NSCLC; 41.7 µM in the experiment on HT29 colon; more than 100 µM in the experiment on KM12 colon; 43.6 µM with M14 melanoma. Besides, the TGI with NCI-H460 lung is 31.4 µM; with SN12C renal, 25.1 µM.
For `COC(=O)C1=CC2C(=O)OC1C1C(=O)NC(=O)C21` (stereo not drawn), the TGI in the experiment with CCRF-CEM leukemia, with COLO 205 colon, in the experiment on HT29 colon, with KM12 colon, with M14 melanoma and with NCI-H460 lung was more than 100 µM each time. The same compound came in with a TGI in the experiment with SN12C renal of more than 100 µM.
For the compound `O=C(/C=C/c1ccc(Cl)c(Cl)c1)c1ccccc1Cl`, the TGI was found to be 19.1 µM in the experiment on CCRF-CEM leukemia; 30.6 µM with COLO 205 colon; 31.4 µM with EKVX NSCLC; 12.8 µM in the experiment with HT29 colon; 20.9 µM with KM12 colon; 12.7 µM in the experiment on M14 melanoma. Moreover, the values for the TGI with NCI-H460 lung and in the experiment with SN12C renal were 27.2 µM and 30.8 µM, respectively.
In the case of `CCC12C=CCN(CCc3c([nH]c4ccccc34)/C=C\1)C2` (stereo not drawn), the TGI in the experiment on CCRF-CEM leukemia, with COLO 205 colon, in the experiment on EKVX NSCLC, in the experiment on HT29 colon, in the experiment on KM12 colon and in the experiment on M14 melanoma was more than 100 µM in each case. Moreover, the TGI with NCI-H460 lung and in the experiment with SN12C renal was more than 100 µM in each case.
With `O=c1nc2sc3ccccc3c(=O)n2[nH]1`, the TGI with CCRF-CEM leukemia, in the experiment with COLO 205 colon, in the experiment on EKVX NSCLC, in the experiment on HT29 colon, with KM12 colon and in the experiment on M14 melanoma was more than 100 µM throughout. The TGI with NCI-H460 lung and with SN12C renal was more than 100 µM in each case.
On to `CCOC(=O)c1cc(=O)n(C)c(=O)n1C`, for which the TGI with CCRF-CEM leukemia, with COLO 205 colon, in the experiment with EKVX NSCLC, in the experiment with HT29 colon, in the experiment with KM12 colon and with M14 melanoma was more than 100 µM throughout. Moreover, the TGI in the experiment on NCI-H460 lung and with SN12C renal was more than 100 µM throughout.
With `Cc1ccc2c(c1)-c1c3c(nn1C)-c1ccccc1SC3O2` (stereo not drawn), the TGI with CCRF-CEM leukemia, with COLO 205 colon, with EKVX NSCLC, in the experiment with HT29 colon, in the experiment with KM12 colon and with NCI-H460 lung was more than 100 µM each time.
For the compound `C=C1C(=O)O[C@H](c2ccoc2)C[C@@H]1[C@@]1(C)CCCC2(C)C(=O)OCC21` (stereo partly drawn), the TGI in the experiment on CCRF-CEM leukemia, in the experiment on COLO 205 colon, with EKVX NSCLC, in the experiment with HT29 colon, with KM12 colon and in the experiment with M14 melanoma was more than 100 µM each time. Also, the TGI in the experiment on NCI-H460 lung and with SN12C renal was more than 100 µM throughout.
Regarding `Cc1cccc(NC(=O)C(=O)C(C2OC(=O)c3ccccc32)[N+](=O)[O-])c1C` (stereo not drawn), the TGI in the experiment on CCRF-CEM leukemia is 20.4 µM; in the experiment with COLO 205 colon, 29.1 µM; in the experiment on EKVX NSCLC it was 46.3 µM; with HT29 colon, 35.1 µM; in the experiment on KM12 colon, 26.9 µM; with M14 melanoma, 26.7 µM. Also, the figures for the TGI with NCI-H460 lung and with SN12C renal were 18.7 µM and 18.9 µM, respectively.
On to `O=C1c2ccccc2C(=O)N1CCCOCc1c[nH]c(=O)[nH]c1=O`, for which the TGI in the experiment on CCRF-CEM leukemia, in the experiment on COLO 205 colon, in the experiment on EKVX NSCLC, with HT29 colon, in the experiment with KM12 colon and in the experiment on M14 melanoma was more than 100 µM throughout. In addition, the TGI in the experiment on NCI-H460 lung and in the experiment on SN12C renal was more than 100 µM throughout.
As to `CN(C)NC(=O)/C(=C/c1ccc(Cl)cc1)NC(=O)c1ccccc1`, the TGI in the experiment on CCRF-CEM leukemia, with COLO 205 colon, with EKVX NSCLC, in the experiment on HT29 colon, in the experiment on KM12 colon and in the experiment with M14 melanoma was more than 100 µM throughout. In addition, the TGI in the experiment on NCI-H460 lung and in the experiment with SN12C renal was more than 100 µM throughout.
As to `CC(C)(C)[Si](C)(C)OCC1OC(n2cnc3c(=O)[nH]cnc32)CC1O` (stereo not drawn), the TGI with CCRF-CEM leukemia, in the experiment with COLO 205 colon, in the experiment on EKVX NSCLC, with HT29 colon, in the experiment with KM12 colon and in the experiment with M14 melanoma was more than 100 µM each time. The TGI with NCI-H460 lung, with SN12C renal and in the experiment with T-47D breast was more than 100 µM in each case.

Values taken from PubChem BioAssay (NCI).
